Laboratory results: PubChem BioAssay (NCI)
Values joined by “and” are separate entries in the source; they are usually repeats but may differ in a detail not shown here. Equal values may be shown once.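 Exposure lasted 48 hours, with cells grown in 96-well plates and compounds tested at five concentrations. GI50 = concentration required for 50% inhibition of growth. TGI: total growth inhibition.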

Tested on: SW-620 colon
Assay: NCI anticancer screen, dose series, 48 h

Compound	GI50	TGI
COc1ccc(-c2nsc3c2NC(=O)CC3c2cccc(OC)c2)cc1 (stereo not drawn)	0.412 µM	> 100 µM
C[C@@]12CCC[C@@](C)(C(=O)O)C1CC[C@]13CC(=O)[C@](CO)(C1)[C@@H](O)CC32 (stereo partly drawn)	> 100 µM	> 100 µM
CN(C)C/C=C/C(=O)Nc1cc2c(Nc3ccc(F)c(Cl)c3)ncnc2cc1O[C@H]1CCOC1	1.38 µM and 1.5 µM	4.63 µM and > 7.89 µM
COc1cc(/C=C/C(=O)c2cccc(-n3cc(-c4ccc(Cl)cc4)[nH]c3=O)c2)ccc1O	2.3 µM	7.71 µM
CCN(Cc1ccc(F)cc1)c1ccc(CO)c(Br)c1	0.475 µM	> 41.2 µM
Cc1ccc2c(C3C(C#N)=C(N)Oc4cc5ccccc5cc43)cc(=O)oc2c1 (stereo not drawn)	0.736 µM	> 100 µM
CCCCCCCN=C(N)c1ccc(N2CCN(c3ccc(C(N)=NCCCCCCC)cc3)CC2)cc1	0.259 µM	> 31.7 µM
CC1(Br)Cc2ccccc2C1=O (stereo not drawn)	0.444 µM	2.69 µM
CN(C)C(=S)Sc1ccc([N+](=O)[O-])cc1[N+](=O)[O-]	1.1 µM	2.79 µM
C[C@H]1CN[C@@H]2[C@@H](C)[C@H]3[C@@H](C[C@H]4[C@@H]5CC[C@H]6C[C@@H](N)CC[C@]6(C)[C@H]5CC[C@]34C)O[C@@]2(O)C1		6.23 µM
Cn1c(=O)c(Oc2ccc(F)cc2)cc2cnc(NC3CCOCC3)nc21	> 25 µM	> 25 µM
CC1(C)N=C(N)N=C(N)N1c1ccc(CCCCc2ccc(Cl)c(S(=O)(=O)F)c2)c(Cl)c1	0.147 µM	15.4 µM
CCc1c(Cl)c(C)cc(O)c1Cl		47.9 µM
CC(C)OC(=O)[C@H](C)NP(=O)(OC[C@H]1O[C@@H](n2ccc(=O)[nH]c2=O)[C@](C)(F)[C@@H]1O)Oc1ccccc1 (stereo partly drawn)	> 100 µM	> 100 µM
BrCc1cccc(C[P+](c2ccccc2)(c2ccccc2)c2ccccc2)c1	22.3 µM	> 100 µM
O=S(=O)(Nc1ccc(Cl)cc1Cl)c1ccc(-c2cnc(C3CC3)o2)cc1	0.423 µM	> 100 µM
CCc1ccc(/C=C/c2ccc(O)c3ncccc23)[n+](C)c1	4.47 µM	> 100 µM
O=C(/C=C/C=C/c1ccccc1)c1ccccc1		30.3 µM
CS(=O)(=O)Nc1cc(-c2ccc3ncnc(Nc4c(Cl)ccc5c4OCO5)c3c2)cnc1Cl	0.327 µM	2.99 µM
COc1ccccc1Nc1ncc(-c2ccccc2)o1	> 25 µM	> 25 µM
CN(C)c1ccc(N=Nc2ccccn2)c(O)c1	0.419 µM	> 100 µM
CN1CC[C@@H](c2c(O)cc(O)c3c(=O)cc(-c4ccc(C(F)(F)F)cc4Cl)oc23)[C@@H]1CO	14.7 µM	31.5 µM

Tested on: MDA-MB-435
Assay: NCI anticancer screen, dose series, 48 h

Compound	GI50	TGI
Cn1c(Nc2ccc(C(F)(F)F)cc2)nc2cc(Oc3ccnc(-c4ncc(C(F)(F)F)[nH]4)c3)ccc21	0.0774 µM	9.44 µM
COc1ccc(-c2nsc3c2NC(=O)CC3c2cccc(OC)c2)cc1 (stereo not drawn)	0.282 µM	0.868 µM
C[C@@]12CCC[C@@](C)(C(=O)O)C1CC[C@]13CC(=O)[C@](CO)(C1)[C@@H](O)CC32 (stereo partly drawn)	> 100 µM	> 100 µM
CN(C)C/C=C/C(=O)Nc1cc2c(Nc3ccc(F)c(Cl)c3)ncnc2cc1O[C@H]1CCOC1	0.603 µM and 0.882 µM	7.37 µM and > 5.68 µM
COc1cc(/C=C/C(=O)c2cccc(-n3cc(-c4ccc(Cl)cc4)[nH]c3=O)c2)ccc1O	2.75 µM	> 47.5 µM
CCN(Cc1ccc(F)cc1)c1ccc(CO)c(Br)c1	19.4 µM	49.6 µM
Cc1ccc2c(C3C(C#N)=C(N)Oc4cc5ccccc5cc43)cc(=O)oc2c1 (stereo not drawn)	0.286 µM	1.07 µM
CCCCCCCN=C(N)c1ccc(N2CCN(c3ccc(C(N)=NCCCCCCC)cc3)CC2)cc1	0.0254 µM	0.0992 µM
CC1(Br)Cc2ccccc2C1=O (stereo not drawn)	2.14 µM	12.4 µM
CN(C)C(=S)Sc1ccc([N+](=O)[O-])cc1[N+](=O)[O-]	1.54 µM	5.36 µM
C[C@H]1CN[C@@H]2[C@@H](C)[C@H]3[C@@H](C[C@H]4[C@@H]5CC[C@H]6C[C@@H](N)CC[C@]6(C)[C@H]5CC[C@]34C)O[C@@]2(O)C1		3.71 µM
Cn1c(=O)c(Oc2ccc(F)cc2)cc2cnc(NC3CCOCC3)nc21	> 25 µM	> 25 µM
CC1(C)N=C(N)N=C(N)N1c1ccc(CCCCc2ccc(Cl)c(S(=O)(=O)F)c2)c(Cl)c1	0.431 µM	18.7 µM
CCc1c(Cl)c(C)cc(O)c1Cl		> 100 µM
CC(C)OC(=O)[C@H](C)NP(=O)(OC[C@H]1O[C@@H](n2ccc(=O)[nH]c2=O)[C@](C)(F)[C@@H]1O)Oc1ccccc1 (stereo partly drawn)	> 100 µM	> 100 µM
BrCc1cccc(C[P+](c2ccccc2)(c2ccccc2)c2ccccc2)c1	8.38 µM	> 100 µM
O=S(=O)(Nc1ccc(Cl)cc1Cl)c1ccc(-c2cnc(C3CC3)o2)cc1	0.182 µM	0.727 µM
CCc1ccc(/C=C/c2ccc(O)c3ncccc23)[n+](C)c1	4.49 µM	> 100 µM
O=C(/C=C/C=C/c1ccccc1)c1ccccc1		34.2 µM
CS(=O)(=O)Nc1cc(-c2ccc3ncnc(Nc4c(Cl)ccc5c4OCO5)c3c2)cnc1Cl	0.251 µM	1.63 µM
COc1ccccc1Nc1ncc(-c2ccccc2)o1	> 25 µM	> 25 µM
CN(C)c1ccc(N=Nc2ccccn2)c(O)c1	0.556 µM	> 100 µM
CN1CC[C@@H](c2c(O)cc(O)c3c(=O)cc(-c4ccc(C(F)(F)F)cc4Cl)oc23)[C@@H]1CO	10 µM	23 µM

Tested on: NCI-H226 lung
Assay: NCI anticancer screen, dose series, 48 h

Compound	GI50	TGI
Cn1c(Nc2ccc(C(F)(F)F)cc2)nc2cc(Oc3ccnc(-c4ncc(C(F)(F)F)[nH]4)c3)ccc21	0.492 µM	16.5 µM
COc1ccc(-c2nsc3c2NC(=O)CC3c2cccc(OC)c2)cc1 (stereo not drawn)	17.5 µM	> 100 µM
C[C@@]12CCC[C@@](C)(C(=O)O)C1CC[C@]13CC(=O)[C@](CO)(C1)[C@@H](O)CC32 (stereo partly drawn)	> 100 µM	> 100 µM
CN(C)C/C=C/C(=O)Nc1cc2c(Nc3ccc(F)c(Cl)c3)ncnc2cc1O[C@H]1CCOC1	2.04 µM and 5.25 µM	8.45 µM and > 10 µM
COc1cc(/C=C/C(=O)c2cccc(-n3cc(-c4ccc(Cl)cc4)[nH]c3=O)c2)ccc1O	6.38 µM	19.5 µM
CCN(Cc1ccc(F)cc1)c1ccc(CO)c(Br)c1	0.0987 µM	0.231 µM
Cc1ccc2c(C3C(C#N)=C(N)Oc4cc5ccccc5cc43)cc(=O)oc2c1 (stereo not drawn)	62.1 µM	> 100 µM
CCCCCCCN=C(N)c1ccc(N2CCN(c3ccc(C(N)=NCCCCCCC)cc3)CC2)cc1	2.13 µM	> 100 µM
CC1(Br)Cc2ccccc2C1=O (stereo not drawn)		5.93 µM
CN(C)C(=S)Sc1ccc([N+](=O)[O-])cc1[N+](=O)[O-]	4.33 µM	17.5 µM
C[C@H]1CN[C@@H]2[C@@H](C)[C@H]3[C@@H](C[C@H]4[C@@H]5CC[C@H]6C[C@@H](N)CC[C@]6(C)[C@H]5CC[C@]34C)O[C@@]2(O)C1		5.77 µM
Cn1c(=O)c(Oc2ccc(F)cc2)cc2cnc(NC3CCOCC3)nc21	> 17.1 µM	> 25 µM
CC1(C)N=C(N)N=C(N)N1c1ccc(CCCCc2ccc(Cl)c(S(=O)(=O)F)c2)c(Cl)c1	4.18 µM	37.6 µM
CCc1c(Cl)c(C)cc(O)c1Cl		63.2 µM
CC(C)OC(=O)[C@H](C)NP(=O)(OC[C@H]1O[C@@H](n2ccc(=O)[nH]c2=O)[C@](C)(F)[C@@H]1O)Oc1ccccc1 (stereo partly drawn)	> 100 µM	> 100 µM
BrCc1cccc(C[P+](c2ccccc2)(c2ccccc2)c2ccccc2)c1	45 µM	> 100 µM
O=S(=O)(Nc1ccc(Cl)cc1Cl)c1ccc(-c2cnc(C3CC3)o2)cc1	1.37 µM	31.1 µM
CCc1ccc(/C=C/c2ccc(O)c3ncccc23)[n+](C)c1	> 22.4 µM	> 100 µM
O=C(/C=C/C=C/c1ccccc1)c1ccccc1		34.3 µM
CS(=O)(=O)Nc1cc(-c2ccc3ncnc(Nc4c(Cl)ccc5c4OCO5)c3c2)cnc1Cl	0.309 µM	3.54 µM
COc1ccccc1Nc1ncc(-c2ccccc2)o1	> 25 µM	> 25 µM
CN(C)c1ccc(N=Nc2ccccn2)c(O)c1	0.515 µM	8.67 µM
CN1CC[C@@H](c2c(O)cc(O)c3c(=O)cc(-c4ccc(C(F)(F)F)cc4Cl)oc23)[C@@H]1CO	10.5 µM	77.2 µM

Tested on: DU-145 prostate
Assay: NCI anticancer screen, dose series, 48 h

Compound	GI50	TGI
Cn1c(Nc2ccc(C(F)(F)F)cc2)nc2cc(Oc3ccnc(-c4ncc(C(F)(F)F)[nH]4)c3)ccc21	2.05 µM	17.3 µM
COc1ccc(-c2nsc3c2NC(=O)CC3c2cccc(OC)c2)cc1 (stereo not drawn)	2.59 µM	19.1 µM
C[C@@]12CCC[C@@](C)(C(=O)O)C1CC[C@]13CC(=O)[C@](CO)(C1)[C@@H](O)CC32 (stereo partly drawn)	> 100 µM	> 100 µM
CN(C)C/C=C/C(=O)Nc1cc2c(Nc3ccc(F)c(Cl)c3)ncnc2cc1O[C@H]1CCOC1	0.884 µM and 0.244 µM	12.7 µM and > 10 µM
COc1cc(/C=C/C(=O)c2cccc(-n3cc(-c4ccc(Cl)cc4)[nH]c3=O)c2)ccc1O	2.6 µM	7.55 µM
CCN(Cc1ccc(F)cc1)c1ccc(CO)c(Br)c1	16.5 µM	> 53.1 µM
Cc1ccc2c(C3C(C#N)=C(N)Oc4cc5ccccc5cc43)cc(=O)oc2c1 (stereo not drawn)	3.79 µM	> 100 µM
CCCCCCCN=C(N)c1ccc(N2CCN(c3ccc(C(N)=NCCCCCCC)cc3)CC2)cc1	0.296 µM	21.8 µM
CC1(Br)Cc2ccccc2C1=O (stereo not drawn)		33.6 µM
CN(C)C(=S)Sc1ccc([N+](=O)[O-])cc1[N+](=O)[O-]	2.59 µM	6.89 µM
C[C@H]1CN[C@@H]2[C@@H](C)[C@H]3[C@@H](C[C@H]4[C@@H]5CC[C@H]6C[C@@H](N)CC[C@]6(C)[C@H]5CC[C@]34C)O[C@@]2(O)C1		16.9 µM
Cn1c(=O)c(Oc2ccc(F)cc2)cc2cnc(NC3CCOCC3)nc21	> 25 µM	> 25 µM
CC1(C)N=C(N)N=C(N)N1c1ccc(CCCCc2ccc(Cl)c(S(=O)(=O)F)c2)c(Cl)c1	0.769 µM	16.5 µM
CCc1c(Cl)c(C)cc(O)c1Cl		> 100 µM
CC(C)OC(=O)[C@H](C)NP(=O)(OC[C@H]1O[C@@H](n2ccc(=O)[nH]c2=O)[C@](C)(F)[C@@H]1O)Oc1ccccc1 (stereo partly drawn)	> 100 µM	> 100 µM
BrCc1cccc(C[P+](c2ccccc2)(c2ccccc2)c2ccccc2)c1	52.9 µM	> 100 µM
O=S(=O)(Nc1ccc(Cl)cc1Cl)c1ccc(-c2cnc(C3CC3)o2)cc1	2.6 µM	> 100 µM
CCc1ccc(/C=C/c2ccc(O)c3ncccc23)[n+](C)c1	4.96 µM	> 100 µM
O=C(/C=C/C=C/c1ccccc1)c1ccccc1		40.1 µM
CS(=O)(=O)Nc1cc(-c2ccc3ncnc(Nc4c(Cl)ccc5c4OCO5)c3c2)cnc1Cl	0.24 µM	5.01 µM
COc1ccccc1Nc1ncc(-c2ccccc2)o1	> 25 µM	> 25 µM
CN(C)c1ccc(N=Nc2ccccn2)c(O)c1	0.481 µM	> 100 µM
CN1CC[C@@H](c2c(O)cc(O)c3c(=O)cc(-c4ccc(C(F)(F)F)cc4Cl)oc23)[C@@H]1CO	16.5 µM	37.7 µM
